Literature values in patent publication US20240058412A1, “MODIFIED RELEASE FORMULATION COMPRISING WITHANOLIDES” (INVENTIA HEALTHCARE LIMITED, priority 2021, published 2024).

Settings: mice plasma, oral Withania somnifera extract 1000 mg/kg

| Compound | half-life [min] |
| --- | --- |
| CC1=C(C)C(=O)O[C@@H]([C@](C)(O)[C@H]2CC[C@H]3[C@@H]4[C@@H]5O[C@@H]5[C@@]5(O)CC=CC(=O)[C@]5(C)[C@H]4CC[C@]23C)C1 [withanolide-A] | 45.22 ± 9.95 |
| CC1=C(CO)C(=O)O[C@@H]([C@@H](C)[C@H]2CC[C@H]3[C@@H]4C[C@H]5O[C@]56[C@@H](O)C=CC(=O)[C@]6(C)[C@H]4CC[C@]23C)C1 [withaferin-A] | 59.92 ± 15.90 |
